Test results as given in patent US6864286B2, “Inhibitors of the EGF-receptor tyrosine kinase and methods for their use” (Parker Hughes Institute, priority 1998, dated 2005).

Legend:
[1] = system: MDA-MB-231 cells; assay: MTT cytotoxicity assay, MDA-MB-231; assay type: cell-based; conditions: Homo sapiens, 36 hours, read-out: Cancer Cell Cytotoxicity IC50 MDA-MB-231
Procedure: In order to determine the cytotoxic activity of LFM and its analogs against breast cancer cells, cells in alpha-MEM supplemented with 10% (v/v) fetal calf serum were treated with various concentrations of the compounds for 24 hours at 37° C., washed twice in alpha-MEM, and then used in either MTT assays or in vitro invasion assays, as described hereinafter.
The cytotoxicity of various compounds against human breast cancer cell lines was analyzed using the MTT (3-[4,5-dimethylthiazol-2-yl]-2,5-diphenyl tetrazolium bromide) assay (Boehringer Mannheim Corp., Indianapolis, Ind.). Uckun F. M., et al. Clin. Cancer Res. 1998, 4, 901-912. Exponentially growing breast cancer cells were seeded into a 96-well plate at a density of 2.5×10^4 cells/well and incubated for 36 hours at 37° C. prior to drug exposure. On the day of treatment, culture medium was carefully aspirated from the wells and replaced with fresh medium containing the LFM analogs at concentrations ranging from 2 to 250 μM. Triplicate wells were used for each treatment. The cells were incubated with the various compounds for 36 hours at 37° C. in a humidified 5% CO2 atmosphere. To each well, 10 μl of MTT (0.5 mg/ml final concentration) was added and the plates were incubated at 37° C. for 4 hours to allow MTT to form formazan crystals by reacting with metabolically active cells. The formazan crystals were solubilized overnight at 37° C. in a solution containing 10% SDS in 0.01 M HCl. The absorbence of each well was measured in a microplate reader (Labsystems) at 540 nm and a reference wavelength of 690 nm.
To translate the absorbance A540 values into the number of live cells in each well, the A540 values were compared to those on standard A540-versus-cell number curves generated for each cell line. The percent survival was calculated using the formula: % survival=Live cell number[test]/Live cell number [control]×100. The IC50 values were calculated by non-linear regression analysis using an Graphpad Prism software version 2.0 (Graphpad Software, Inc., San Diego, Calif.).

[2] = molecular target: T1, EGFR tyrosine kinase (Homo sapiens, UniProt P00533); assay: Cell-free EGFR immune complex kinase assay; assay type: biochemical; conditions: EGFR immunoprecipitated from MDA-MB-231 lysates, 1 hour incubation, read-out: EGFR Inhibition IC50
T1 construct: anti-EGFR immunoprecipitates from lysates of MDA-MB-231 human breast cancer cells; endogenous in cells; host or cells: MDA-MB-231 (ATCC HTB-26)
Procedure: For EGFR immune complex kinase assays, 24-hours after treatment with leflunomide analogs, MDA-MB-231 breast cancer cells were stimulated with 20 ng/mL EGF for 5 minutes, lysed in 1% Nonidet-P-40 buffer, and cell lysates were immunoprecipitated with an anti-EGFR antibody reactive with the sequence Ala^351-Asp^364 of the human EGFR (Upstate Biotechnology Inc. [UBI] Catalog # 05-104) (Uckun, F. M., et al. Clin. Can. Res. 1998, 4, 901). EGFR immune complexes were examined for tyrosine phosphorylation by Western blot analysis, as described by Uckun, F. M., et al. Clin. Can. Res. 1998, 4, 901. All anti-phosphotyrosine Western blots were subjected to densitometric scanning using the automated AMBIS system (Automated Microbiology System, Inc., San Diego, Calif.) and for each time point a % inhibition value was determined by comparing the density ratios of the tyrosine phosphorylated EGFR protein bands to those of the baseline sample and using the formula: % Inhibition=100−100×[Density of tyrosine phosphorylated EGFR band]test sample/[Density of tyrosine phosphorylated EGFR band]baseline control sample. The IC50 values were determined using an Inplot program (Graphpad Software, Inc., San Diego, Calif.).
In other experiments, MDA-MB-231 cells were stimulated with 10 ng/ml EGF prior to immunoprecipitation of the EGFR. EGFR immune complexes were incubated for 1 hour at room temperature with various LFM analogs and tyrosine kinase assays were performed in the presence of [γ-^32P]-ATP, as previously described (Uckun, F. M., et al. Clin. Can. Res. 1998, 4, 901; Narla, R. K., et al. Clin. Can. Res 1998, 1405; Uckun, F. M., et al. Science 1996, 22, 1096; Uckun, F. M., et al. Science 1995, 267, 886). The kinase assay gels were analyzed both by autoradiography and using the BioRad Storage Phosphor Imager System (BioRad, Hercules, Calif.) for quantitative scanning.

[3] = molecular target: T2, JAK1 (Homo sapiens, UniProt P23458); assay: Cell-free JAK1 immune complex kinase assay; assay type: biochemical; conditions: for effect on enzymatic activity of JAK1: at concentrations as high as 350 μM
T2 construct: made in house; host or cells: Sf21 insect cells (baculovirus)
Procedure: Immunoprecipitations, immune-complex protein kinase assays, and immunoblotting using the ECL chemiluminescence detection system (Amersham Life Sciences) were conducted as described previously (Vassilev, A., et al. J. Biol. Chem. 1998, in press; Goodman, P. A., et al. J. Biol. Chem. 1998, 273, 17742; Mahajan, S., et al. Mol. Cell. Biol. 1995, 15, 5304; Uckun, F. M., et al. Science 1996, 22, 1096).

T2 sequence (P23458 whole entry, species assumed): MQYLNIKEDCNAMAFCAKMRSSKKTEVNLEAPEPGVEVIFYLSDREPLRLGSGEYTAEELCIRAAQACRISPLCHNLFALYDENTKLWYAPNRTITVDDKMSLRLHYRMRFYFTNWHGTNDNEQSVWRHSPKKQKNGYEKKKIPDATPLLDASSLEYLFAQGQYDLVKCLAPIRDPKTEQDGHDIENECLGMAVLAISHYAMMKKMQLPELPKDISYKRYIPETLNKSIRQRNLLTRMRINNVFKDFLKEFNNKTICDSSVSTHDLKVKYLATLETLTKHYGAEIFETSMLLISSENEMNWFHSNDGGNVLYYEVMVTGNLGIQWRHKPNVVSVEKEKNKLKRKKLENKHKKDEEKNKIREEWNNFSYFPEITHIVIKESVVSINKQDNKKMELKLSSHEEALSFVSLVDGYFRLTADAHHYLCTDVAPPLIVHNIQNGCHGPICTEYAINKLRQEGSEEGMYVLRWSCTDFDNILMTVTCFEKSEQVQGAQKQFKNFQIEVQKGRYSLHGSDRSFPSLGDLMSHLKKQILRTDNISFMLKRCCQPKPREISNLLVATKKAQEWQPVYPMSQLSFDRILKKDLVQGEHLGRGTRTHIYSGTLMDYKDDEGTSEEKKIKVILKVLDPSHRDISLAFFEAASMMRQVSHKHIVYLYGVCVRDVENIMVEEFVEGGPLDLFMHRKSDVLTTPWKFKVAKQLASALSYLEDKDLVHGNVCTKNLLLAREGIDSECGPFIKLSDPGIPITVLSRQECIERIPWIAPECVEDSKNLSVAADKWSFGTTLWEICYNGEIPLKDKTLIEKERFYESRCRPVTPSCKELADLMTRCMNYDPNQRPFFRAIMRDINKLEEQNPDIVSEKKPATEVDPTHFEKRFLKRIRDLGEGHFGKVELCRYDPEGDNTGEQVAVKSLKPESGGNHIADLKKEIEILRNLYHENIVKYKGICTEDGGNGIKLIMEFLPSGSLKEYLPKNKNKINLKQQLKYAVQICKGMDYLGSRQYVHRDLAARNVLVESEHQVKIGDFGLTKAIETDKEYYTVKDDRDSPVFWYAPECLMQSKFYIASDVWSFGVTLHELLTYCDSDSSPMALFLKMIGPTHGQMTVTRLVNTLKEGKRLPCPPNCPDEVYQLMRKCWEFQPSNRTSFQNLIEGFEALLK
T1 sequence (P00533 25-1210): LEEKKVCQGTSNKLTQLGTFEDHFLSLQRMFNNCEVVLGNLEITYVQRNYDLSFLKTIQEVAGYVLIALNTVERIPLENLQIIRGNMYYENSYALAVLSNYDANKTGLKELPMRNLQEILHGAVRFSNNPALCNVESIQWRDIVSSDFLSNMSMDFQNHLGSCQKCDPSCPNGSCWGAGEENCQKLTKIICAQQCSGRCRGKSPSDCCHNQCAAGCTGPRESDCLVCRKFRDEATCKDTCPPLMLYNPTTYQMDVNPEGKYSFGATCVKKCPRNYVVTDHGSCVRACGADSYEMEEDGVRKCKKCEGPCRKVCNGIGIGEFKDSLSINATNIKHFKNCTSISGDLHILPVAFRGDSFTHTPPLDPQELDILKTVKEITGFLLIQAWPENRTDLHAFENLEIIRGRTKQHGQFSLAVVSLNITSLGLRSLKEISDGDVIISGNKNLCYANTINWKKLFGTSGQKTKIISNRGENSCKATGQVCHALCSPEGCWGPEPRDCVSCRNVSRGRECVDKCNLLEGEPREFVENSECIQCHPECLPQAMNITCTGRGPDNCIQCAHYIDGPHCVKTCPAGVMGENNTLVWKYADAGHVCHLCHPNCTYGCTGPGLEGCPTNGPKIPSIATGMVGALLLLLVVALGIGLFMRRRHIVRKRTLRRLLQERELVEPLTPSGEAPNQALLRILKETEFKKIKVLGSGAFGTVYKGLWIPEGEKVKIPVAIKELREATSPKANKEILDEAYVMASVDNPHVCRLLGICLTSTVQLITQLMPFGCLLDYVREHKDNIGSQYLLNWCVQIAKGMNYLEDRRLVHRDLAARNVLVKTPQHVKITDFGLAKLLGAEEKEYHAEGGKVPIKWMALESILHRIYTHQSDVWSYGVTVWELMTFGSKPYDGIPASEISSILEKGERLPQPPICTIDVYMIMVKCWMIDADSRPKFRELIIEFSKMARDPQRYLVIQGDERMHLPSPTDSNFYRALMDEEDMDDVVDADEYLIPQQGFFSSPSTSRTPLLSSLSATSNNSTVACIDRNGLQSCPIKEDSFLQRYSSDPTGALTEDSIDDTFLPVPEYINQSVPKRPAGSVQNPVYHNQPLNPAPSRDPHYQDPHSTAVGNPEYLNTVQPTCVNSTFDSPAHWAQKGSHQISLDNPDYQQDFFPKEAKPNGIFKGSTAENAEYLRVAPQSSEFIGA

IC50 [2] [µM] | effect on enzymatic activity of JAK1 [3] | IC50 ([3]; JAK1, cell-free, read-out: Inhibition IC50) [µM] | Compound | IC50 [1] [µM]
5.4 | did not affect the enzymatic activity |  | CC(O)=C(C#N)C(=O)Nc1ccc(C(F)(F)F)cc1 [LFM, α-Cyano-β-hydroxy-β-methyl-N-[4-(trifluoromethyl)phenyl]-propenamide, reference compound] | 199
1.7 | did not affect the enzymatic activity | > 175 | C/C(O)=C(\C#N)C(=O)Nc1ccc(OC(F)(F)F)cc1 [LFM-A12, α-Cyano-β-hydroxy-β-methyl-N-[4-(trifluoromethoxy)phenyl]-propenamide] | 53.4
